According to patent publication US20030232986A1, “Inhibitors of caspases” (Vertex Pharmaceuticals Incorporated, priority 1998, published 2003):
Like-named read-outs stand apart in the source and are kept apart here. Where a SMILES comes first, the peptide text is derived from it. [ ]: non-standard residue; d: D form. 4Abz = Nc1ccc(C(=O)O)cc1

Columns and labels:
[1] = test system: Human Peripheral Blood Mononuclear Cells (PBMC), mature IL-1β; experiment: PBMC cell assay: IL-1β assay with human peripheral blood mononuclear cells; format: cell-based; conditions: LPS-stimulated human PBMC, mature IL-1β in supernatant by ELISA
Source text: IL-1β Assay with a Mixed Population of Human Peripheral Blood Mononuclear Cells (PBMC) or Enriched Adherent Mononuclear Cells
Processing of pre-IL-1β by ICE can be measured in cell culture using a variety of cell sources. Human PBMC obtained from healthy donors provides a mixed population of lymphocyte subtypes and mononuclear cells that produce a spectrum of interleukins and cytokines in response to many classes of physiological stimulators. Adherent mononuclear cells from PBMC provides an enriched source of normal monocytes for selective studies of cytokine production by activated cells.
An initial dilution series of test compound in DMSO or ethanol is prepared, with a subsequent dilution into RPMI-10% FBS media (containing 2 mM L-glutamine, 10 mM HEPES, 50 U and 50 ug/ml pen/strep) respectively to yield drugs at 4× the final test concentration containing 0.4% DMSO or 0.4% ethanol. The final concentration of DMSO is 0.1% for all drug dilutions. A concentration titration which brackets the apparent Ki for a test compound determined in an ICE inhibition assay is generally used for the primary compound screen.
Generally 5-6 compound dilutions are tested and the cellular component of the assay is performed in duplicate, with duplicate ELISA determinations on each cell culture supernatant.
Buffy coat cells isolated from one pint human blood (yielding 40-45 ml final volume plasma plus cells) are diluted with media to 80 ml and LeukoPREP separation tubes (Becton Dickinson) are each overlaid with 10 ml of cell suspension. After 15 min centrifugation at 1500-1800×g, the plasma/media layer is aspirated and then the mononuclear cell layer is collected with a Pasteur pipette and transferred to a 15 ml conical centrifuge tube (Corning). Media is added to bring the volume to 15 ml, gently mix the cells by inversion and centrifuge at 300×g for 15 min. The PBMC pellet is resuspended in a small volume of media, the cells are counted and adjusted to 6×10^6 cells/ml.
For the cellular assay, 1.0 ml of the cell suspension is added to each well of a 24-well flat bottom tissue culture plate (Corning), 0.5 ml test compound dilution and 0.5 ml LPS solution (Sigma #L-3012; 20 ng/ml solution prepared in complete RPMI media; final LPS concentration 5 ng/ml). The 0.5 ml additions of test compound and LPS are usually sufficient to mix the contents of the wells. Three control mixtures are run per experiment, with either LPS alone, solvent vehicle control, and/or additional media to adjust the final culture volume to 2.0 ml. The cell cultures are incubated for 16-18 hr at 37° C. in the presence of 5% CO2.
At the end of the incubation period, cells are harvested and transferred to 15 ml conical centrifuge tubes. After centrifugation for 10 min at 200×g, supernatants are harvested and transferred to 1.5 ml Eppendorf tubes. It may be noted that the cell pellet may be utilized for a biochemical evaluation of pre-IL-1β and/or mature IL-1β content in cytosol extracts by Western blotting or ELISA with pre-IL-1β specific antisera.
PBMC are isolated and prepared as described above. Media (1.0 ml) is first added to wells followed by 0.5 ml of the PBMC suspension. After a one hour incubation, plates are gently shaken and nonadherent cells aspirated from each well. Wells are then gently washed three times with 1.0 ml of media and final resuspended in 1.0 ml media. The enrichment for adherent cells generally yields 2.5-3.0×10^5 cells per well. The addition of test compounds, LPS, cell incubation conditions and processing of supernatants proceeds as described above.
Quantikine kits (R&D Systems) may be used for the measurement of mature IL-1β. Assays are performed according to the manufacturer's directions. Mature IL-1β levels of about 1-3 ng/ml in both PBMC and adherent mononuclear cell positive controls are observed. […]

[2] = target: T1, Caspase-1 (Homo sapiens, UniProt P29466); experiment: Caspase-1 enzyme inhibition (Ki); format: biochemical
T1 sequence (P29466 120-297 limits assumed): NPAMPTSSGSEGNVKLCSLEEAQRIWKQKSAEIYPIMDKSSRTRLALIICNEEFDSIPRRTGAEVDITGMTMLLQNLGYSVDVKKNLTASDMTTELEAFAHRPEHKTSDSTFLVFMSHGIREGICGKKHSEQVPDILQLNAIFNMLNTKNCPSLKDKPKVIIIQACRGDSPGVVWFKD
T1 sequence (P29466 317-404 limits assumed): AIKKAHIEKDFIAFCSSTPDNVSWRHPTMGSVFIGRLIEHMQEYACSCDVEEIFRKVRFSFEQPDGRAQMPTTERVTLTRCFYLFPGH
Outline: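 Ki obtained by fitting rate versus inhibitor concentration to the Morrison tight-binding equation for competitive inhibitors, with pNA release read at 405 nm at 37 °C. Substrate Suc-YVAD-pNA (80 μM final) added after 15 min enzyme–inhibitor preincubation in Tris pH 7.5 buffer with DTT and CHAPS.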

[3] = test system: Human whole blood, IL-1β production; experiment: Whole blood assay for IL-1β production; format: cell-based; conditions: LPS-stimulated whole blood, IL-1β by ELISA
Description: The whole blood assay is a simple method for measuring the production of IL-1β (or other cytokines) and the activity of potential inhibitors. The complexity of this assay system, with its full complement of lymphoid and inflammatory cell types, spectrum of plasma proteins and red blood cells is an ideal in vitro representation of human in vivo physiologic conditions.
Set incubator or water bath at 30° C. Aliquot 0.25 ml of blood into 1.5 ml eppendorf tubes. Note: be sure to invert the whole blood sample tubes after every two aliquots. Differences in replicates may result if the cells sediment and are not uniformly suspended. Use of a positive displacement pipette will also minimize differences between replicate aliquots.
Prepare drug dilutions in sterile pyrogen-free saline by serial dilution. A dilution series which brackets the apparent Ki for a test compound determined in an ICE inhibition assay is generally used for the primary compound screen. For extremely hydrophobic compounds, prepare compound dilutions in fresh plasma obtained from the same blood donor or in PBS-containing 5% DMSO to enhance solubility.
Add 25 μl test compound dilution or vehicle control and gently mix the sample. Then add 5.0 μl LPS solution (250 ng/ml stocked prepared fresh: 5.0 ng/ml final concentration LPS), and mix again. Incubate the tubes at […] in a water bath for 16-18 hr with occasional mixing. Alternatively, the tubes can be placed in a rotator set at 4 rpm for the same incubation period. This assay should be set up in duplicate or triplicate with the following controls: negative control—no LPS; positive control—no test inhibitor; vehicle control—the highest concentration of DMSO or compound solvent used in the experiment. Additional saline is added to all control tubes to normalize volumes for both control and experimental whole blood test samples.
After the incubation period, whole blood samples are centrifuged for 10 minutes at ^˜2000 rpm in the microfuge, plasma is transferred to a fresh microfuge tube and centrifuged at 1000×g to pellet residual platelets if necessary. Plasma samples may be stored frozen at −70° C. prior to assay for cytokine levels by ELISA.
R & D Systems (614 McKinley Place N.E. Minneapolis, Minn. 55413) Quantikine kits may be used for measurement of IL-1β and TNF-α. The assays are performed according to the manufacture's directions. IL-1β levels of ^˜1-5 ng/ml in positive controls among a range of individuals may be observed. A 1:200 dilution of plasma for all samples is usually sufficient for experiments for ELISA results to fall on the linear range of the ELISA standard curves. It may be necessary to optimize standard dilutions if you observe differences in the whole blood assay. Nerad, J. L. et al., J. Leukocyte Biol., 52, pp. 687-692 (1992).

[4] = substrate Suc-YVAD-pNA 80 μM, 37° C., pH 7.5

Row | SMILES | Ki [2, 4] | IC50 [3] | Ki [2] | IC50 [1]
1 | CC(C)[C@H](NC(=O)c1ccc2c(c1)OCO2)C(=O)N1CCC[C@H]1C(=O)N[C@H](C=O)CC(=O)O [Example 5r] | 10 to 1000 nM | > 7500 nM | 10 to 1000 nM | > 2000 nM
2 | CC(=O)NC(C(=O)N1N=C(C(C)(C)C)SC1C(=O)NC(C=O)CC(=O)O)C(C)C (stereo not drawn) [Example 42, 3-{[3-(2-acetylamino-3-methyl-butyryl)-5-tert-butyl-2,3-dihydro-[1,3,4]thiadiazole-2-carbonyl]-amino)-4-oxo-butyric acid] | 10 to 1000 nM | 2500 to 7500 nM | – | > 2000 nM
3 | CS(=O)(=O)CC[C@H](NC(=O)c1cc(Cl)c(O)c(Cl)c1)C(=O)N1CCC[C@H]1C(=O)N[C@H](C=O)CC(=O)O [Example 20p, 3-({1-[2-(3,5-dichloro-4-hydroxy-benizoylamino)-4-methanesulfonyl-butyryl]-pyrrolidine-2-carbonyl}-amino)-4-oxo-butyric acid] | < 10 nM | < 2500 nM | – | < 500 nM
4 | COc1ccc2cc([C@H](C)C(=O)N[C@H](C(=O)N3CCC[C@H]3C(=O)N[C@H](C=O)CC(=O)O)C(C)C)ccc2c1 [Example 5ag] | < 10 nM | 2500 to 7500 nM | < 10 nM | 500 to 1000 nM
5 | CC(=O)N[C@@H]1C[C@@H](C(=O)N[C@H](C=O)CC(=O)O)N(C(=O)[C@@H](NC(=O)c2nccc3ccccc23)C(C)C)C1 [Example 9g] | < 10 nM | 2500 to 7500 nM | – | 1000 to 2000 nM
6 | CCC(C)[C@H](NC(=O)c1cc(Cl)c(O)c(Cl)c1)C(=O)N1CCC[C@H]1C(=O)N[C@H](C=O)CC(=O)O (stereo partly drawn) [Example 20k] | < 10 nM | < 2500 nM | – | < 500 nM
7 | C[C@@H](O)[C@H](NC(=O)c1nccc2ccccc12)C(=O)N1CCC[C@H]1C(=O)N[C@H](C=O)CC(=O)O [Example 20d] | 10 to 1000 nM | 2500 to 7500 nM | – | > 2000 nM
8 | C[C@H](NC(=O)c1ccc(N(C)C)c2ccccc12)C(=O)N1CCC[C@H]1C(=O)N[C@H](C=O)CC(=O)O [Example 7g] | < 10 nM | 2500 to 7500 nM | – | < 500 nM
9 | C[C@H](NC(=O)c1nccc2ccccc12)C(=O)N1CCCC[C@H]1C(=O)N[C@H](C=O)CC(=O)O [Example 25a] | < 10 nM | 2500 to 7500 nM | – | < 500 nM
10 | CSC[C@H](NC(=O)c1cc(Cl)c(O)c(Cl)c1)C(=O)N1CCC[C@H]1C(=O)N[C@H](C=O)CC(=O)O [Example 20o] | < 10 nM | < 2500 nM | – | < 500 nM
11 | CC(C)[C@H](NC(=O)c1ccc2c(c1)S(=O)(=O)c1ccccc1C2=O)C(=O)N1CCC[C@H]1C(=O)N[C@H](C=O)CC(=O)O [Example 5ai] | < 10 nM | > 7500 nM | < 10 nM | < 500 nM
12 | COc1ccc(C(=O)N[C@H](C(=O)N2CCNC[C@H]2C(=O)N[C@H](C=O)CC(=O)O)C(C)C)cc1 [Example 15c] | < 10 nM | < 2500 nM | – | 500 to 1000 nM
13 | C[C@H](NC(=O)c1nccc2ccccc12)C(=O)N[C@@H](C)C(=O)N[C@H](C=O)CC(=O)O [Example 29c] | < 10 nM | < 2500 nM | – | 500 to 1000 nM
14 | C[C@H](NC(=O)[C@@H](NC(=O)c1cccc2ccccc12)C(C)(C)C)C(=O)N[C@H](C=O)CC(=O)O [Example 29k] | < 10 nM | < 2500 nM | – | < 500 nM

Now from value to molecule, other results behind:

Row | Ki [2, 4] | IC50 [3] | Ki [2] | SMILES | IC50 [1]
15 | < 10 nM | < 2500 nM | – | Cc1cc(C(=O)N[C@H](C(=O)N[C@@H](C)C(=O)N[C@H](C=O)CC(=O)O)C(C)C)cc(C)c1O [Example 29e] | < 500 nM
16 | < 10 nM | < 2500 nM | – | C[C@H](NC(=O)c1cc(Cl)c(N)c(Cl)c1)C(=O)N1CCC[C@H]1C(=O)N[C@H](C=O)CC(=O)O [Example 122g, 3-({1-[2-(4-Amino-3,5-dichloro-benzoylamino)-propionyl]-pyrrolidine-2-carbonyl}-amino)-4-oxo-butyric acid] | 500 to 1000 nM
17 | < 10 nM | 2500 to 7500 nM | < 10 nM | CCCCCCOc1ccc(C(=O)N[C@H](C(=O)N2CCC[C@H]2C(=O)N[C@H](C=O)CC(=O)O)C(C)C)cc1 [Example 5y] | 500 to 1000 nM
18 | < 10 nM | < 2500 nM | < 10 nM | COc1c(C)cc(C(=O)N[C@H](C(=O)N2CCC[C@H]2C(=O)N[C@H](C=O)CC(=O)O)C(C)C)cc1C [Example 5ac] | < 500 nM
19 | < 10 nM | 2500 to 7500 nM | – | COC(=O)N[C@@H]1C[C@@H](C(=O)N[C@H](C=O)CC(=O)O)N(C(=O)[C@@H](NC(=O)c2ccc(OC)cc2)C(C)C)C1 [Example 9e] | 1000 to 2000 nM
20 | < 10 nM | < 2500 nM | – | C[C@H](NC(=O)c1cccc2ccccc12)C(=O)N[C@@H](C)C(=O)N[C@H](C=O)CC(=O)O [Example 29d] | 500 to 1000 nM
21 | < 10 nM | < 2500 nM | 10 to 1000 nM | CC(=O)Nc1ccc(C(=O)N[C@H](C(=O)N2CCC[C@H]2C(=O)N[C@H](C=O)CC(=O)O)C(C)C)cc1 [Example 5a] (Ac-[4Abz]VPD-aldehyde) | > 2000 nM
